Measured values taken from patent publication US7138361B2, “Herbicidal heterocycles” (E. I. du Pont de Nemours and Company, priority 2000, dated 2006).

Columns and labels:
Format in all cases: in vivo
Nightshade = assay: Test C preemergence; details: Rate 250 g/ha, visual evaluation after 12 to 14 days
[1] = test system: pigweed (Amaranthus retroflexus); assay: Test B preemergence; details: Preemergence, Rate 500 g/ha; scale 0 to 100, 0 no effect, 100 complete control
Procedure, shortened: (§1)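 Preemergence: seeds planted and treated with test chemicals in non-phytotoxic solvent with surfactant; postemergence on plants 2–18 cm (1- to 4-leaf stage). Kept in greenhouse 13–15 days, then visually rated against controls on a 0 (no effect) to 100 (complete control) scale.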

[2] = test system: lambsquarters (Chenopodium album); assay: Test B preemergence; details: scale 0 to 100, 0 no effect, 100 complete control
Procedure, shortened: as §1

rice (Oryza saliva) = assay: Test B preemergence; details: Preemergence, Rate 500 g/ha; scale 0 to 100, 0 no effect, 100 complete control
Procedure, shortened: as §1

corn (Zea mays) [3] = assay: Test B preemergence; details: scale 0 to 100, 0 no effect, 100 complete control
Procedure, shortened: as §1

[4] = test system: morning glory (Ipomoea hederacea); assay: Test B preemergence; details: Preemergence, Rate 500 g/ha; scale 0 to 100, 0 no effect, 100 complete control
Procedure, shortened: as §1

[5] = test system: giant foxtail (Setaria faberii); assay: Test B preemergence; details: scale 0 to 100, 0 no effect, 100 complete control
Procedure, shortened: as §1

[6] = test system: cocklebur (Xanthium strumarium); assay: Test B preemergence; details: scale 0 to 100, 0 no effect, 100 complete control
Procedure, shortened: as §1

[7] = test system: Surinam grass (Brachiaria decumbens); assay: Test B preemergence; details: scale 0 to 100, 0 no effect, 100 complete control
Procedure, shortened: as §1

[8] = test system: velvetleaf (Abutilon theophrasti); assay: Test B preemergence; details: Preemergence, Rate 500 g/ha; scale 0 to 100, 0 no effect, 100 complete control
Procedure, shortened: as §1

[9] = test system: barnyardgrass (Echinochloa crus-galli); assay: Test B preemergence; details: scale 0 to 100, 0 no effect, 100 complete control
Procedure, shortened: as §1

[10] = test system: crabgrass (Digitaria sanguinalis); assay: Test B preemergence; details: scale 0 to 100, 0 no effect, 100 complete control
Procedure, shortened: as §1

[11] = test system: smallflower flatsedge (Cyperus difformis); assay: Test C flooded paddy test; details: for Flatsedge plant response rating: Flooded Paddy, scale 0 to 100, 0 no effect, 100 complete control; for Plant response rating, Flatsedge: flooded paddy test, scale 0 to 100 (0 no effect, 100 complete control)
Procedure, shortened: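 Visual ratings (0 = no effect, 100 = complete control) were made 12–14 days after treatment, relative to greenhouse controls. Plants in the flooded paddy test were rice, smallflower flatsedge, duck salad and barnyardgrass, treated at the 2-leaf stage.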

[12] = test system: pigweed (Amaranthus retroflexus); assay: Test B postemergence; details: 13 to 15 days
Procedure, shortened: as §1

[13] = test system: lambsquarters (Chenopodium album); assay: Test B postemergence; details: 13 to 15 days
Procedure, shortened: as §1

corn (Zea mays) [14] = assay: Test B postemergence; details: 13 to 15 days
Procedure, shortened: as §1

[15] = test system: morning glory (Ipomoea hederacea); assay: Test B postemergence; details: 13 to 15 days
Procedure, shortened: as §1

[16] = test system: giant foxtail (Setaria faberii); assay: Test B postemergence; details: 13 to 15 days
Procedure, shortened: as §1

[17] = test system: cocklebur (Xanthium strumarium); assay: Test B postemergence; details: 13 to 15 days
Procedure, shortened: as §1

wild oat (Avena fatua) = assay: Test B postemergence; details: 13 to 15 days
Procedure, shortened: as §1

[18] = test system: Surinam grass (Brachiaria decumbens); assay: Test B postemergence; details: 13 to 15 days
Procedure, shortened: as §1

[19] = test system: blackgrass (Alopecurus myosuroides); assay: Test B postemergence; details: 13 to 15 days
Procedure, shortened: as §1

[20] = test system: velvetleaf (Abutilon theophrasti); assay: Test B postemergence; details: 13 to 15 days
Procedure, shortened: as §1

[21] = test system: barnyardgrass (Echinochloa crus-galli); assay: Test B postemergence; details: 13 to 15 days
Procedure, shortened: as §1

[22] = test system: wheat (Triticum aestivum); assay: Test B postemergence; details: 13 to 15 days
Procedure, shortened: as §1

[23] = test system: crabgrass (Digitaria sanguinalis); assay: Test B postemergence; details: 13 to 15 days
Procedure, shortened: as §1

Sunflower = assay: Test C preemergence; details: Rate 250 g/ha, visual evaluation after 12 to 14 days
[24] = Rate 125 g/ha, scale 0 (no effect) to 100 (complete control)
[25] = Rate 500 g/ha, scale 0 to 100, 0 is no effect, 100 is complete control

CC(C)c1ccn(C2SCN(c3cccc(OC(F)(F)F)c3)C2=O)n1 (stereo not drawn) [Compound 31]
80: Plant response rating, Lambsquarters [13, 25]
30: Plant response rating, Foxtail, Giant ([5]; preemergence, Rate 125 g/ha) | Plant response rating, Surinam grass ([7]; preemergence, Rate 125 g/ha) | Plant response rating, Morningglory [15, 25]
100: Plant response rating (0 to 100), Nightshade (Nightshade) | Plant response rating, Pigweed [1] | Plant response rating, Lambsquarters ([2]; Preemergence, Rate 500 g/ha) | Plant response rating, Lambsquarters ([2]; preemergence, Rate 125 g/ha) | Plant response rating, Barnyardgrass ([9]; Preemergence, Rate 500 g/ha) | Plant response rating, Barnyardgrass ([9]; preemergence, Rate 125 g/ha) | Plant response rating, Crabgrass ([10]; Preemergence, Rate 500 g/ha) | Plant response rating, Crabgrass ([10]; preemergence, Rate 125 g/ha) | Flatsedge plant response rating ([11]; Rate 250 g/ha) | Flatsedge plant response rating ([11]; Rate 500 g/ha) | Plant response rating, Flatsedge ([11]; Rate 62 g/ha) | Plant response rating, Flatsedge ([11]; Rate 125 g/ha) | Plant response rating, Barnyardgrass [21, 24] | Plant response rating, Barnyardgrass [21, 25]
10: Plant response rating, Morningglory [15, 24]
40: Plant response rating, Crabgrass [23, 25] | Plant response rating (0 to 100), Sunflower (Sunflower)
0: Plant response rating, Rice (rice (Oryza saliva)) | Plant response rating, Corn (corn (Zea mays) [3]; Preemergence, Rate 500 g/ha) | Plant response rating, Corn (corn (Zea mays) [3]; preemergence, Rate 125 g/ha) | Plant response rating, Morningglory [4] | Plant response rating, Cocklebur ([6]; Preemergence, Rate 500 g/ha) | Plant response rating, Cocklebur ([6]; preemergence, Rate 125 g/ha) | Plant response rating, Velvetleaf [8] | Plant response rating, Corn (corn (Zea mays) [14]; [24]) | Plant response rating, Corn (corn (Zea mays) [14]; [25]) | Plant response rating, Foxtail, Giant [16, 24] | Plant response rating, Wild Oat (wild oat (Avena fatua); [24]) | Plant response rating, Wild Oat (wild oat (Avena fatua); [25]) | Plant response rating, Surinam grass [18, 24] | Plant response rating, Surinam grass [18, 25] | Plant response rating, Blackgrass [19, 24] | Plant response rating, Blackgrass [19, 25] | Plant response rating, Velvetleaf [20, 24] | Plant response rating, Velvetleaf [20, 25] | Plant response rating, Wheat [22, 24] | Plant response rating, Wheat [22, 25] | Plant response rating, Crabgrass [23, 24]
90: Plant response rating, Foxtail, Giant ([5]; Preemergence, Rate 500 g/ha)
70: Plant response rating, Surinam grass ([7]; Preemergence, Rate 500 g/ha) | Plant response rating, Lambsquarters [13, 24] | Plant response rating, Cocklebur [17, 25]
60: Plant response rating, Pigweed [12, 25] | Plant response rating, Cocklebur [17, 24]
20: Plant response rating, Pigweed [12, 24] | Plant response rating, Foxtail, Giant [16, 25]

CCC(C)c1ccn(C2SCN(c3cccc(OC(F)(F)F)c3)C2=O)n1 (stereo not drawn) [Compound 32]
90: Plant response rating (0 to 100), Nightshade (Nightshade) | Plant response rating, Lambsquarters [13, 25] | Plant response rating, Barnyardgrass [21, 25]
20: Plant response rating, Morningglory [15, 24] | Plant response rating, Morningglory [15, 25]
80: Plant response rating, Barnyardgrass ([9]; preemergence, Rate 125 g/ha) | Plant response rating, Lambsquarters [13, 24] | Plant response rating, Barnyardgrass [21, 24] | Plant response rating, Crabgrass [23, 24]
60: Plant response rating, Surinam grass ([7]; Preemergence, Rate 500 g/ha) | Plant response rating, Crabgrass ([10]; preemergence, Rate 125 g/ha) | Plant response rating, Pigweed [12, 25] | Plant response rating, Foxtail, Giant [16, 25] | Plant response rating, Cocklebur [17, 24] | Plant response rating, Cocklebur [17, 25]
100: Plant response rating, Pigweed [1] | Plant response rating, Lambsquarters ([2]; Preemergence, Rate 500 g/ha) | Plant response rating, Lambsquarters ([2]; preemergence, Rate 125 g/ha) | Plant response rating, Foxtail, Giant ([5]; Preemergence, Rate 500 g/ha) | Plant response rating, Barnyardgrass ([9]; Preemergence, Rate 500 g/ha) | Plant response rating, Crabgrass ([10]; Preemergence, Rate 500 g/ha) | Flatsedge plant response rating ([11]; Rate 250 g/ha) | Flatsedge plant response rating ([11]; Rate 500 g/ha) | Plant response rating, Flatsedge ([11]; Rate 62 g/ha) | Plant response rating, Flatsedge ([11]; Rate 125 g/ha) | Plant response rating, Crabgrass [23, 25]
10: Plant response rating, Surinam grass [18, 25]
40: Plant response rating, Surinam grass ([7]; preemergence, Rate 125 g/ha) | Plant response rating, Pigweed [12, 24]
0: Plant response rating, Rice (rice (Oryza saliva)) | Plant response rating, Corn (corn (Zea mays) [3]; Preemergence, Rate 500 g/ha) | Plant response rating, Corn (corn (Zea mays) [3]; preemergence, Rate 125 g/ha) | Plant response rating, Morningglory [4] | Plant response rating, Cocklebur ([6]; Preemergence, Rate 500 g/ha) | Plant response rating, Velvetleaf [8] | Plant response rating, Corn (corn (Zea mays) [14]; [24]) | Plant response rating, Corn (corn (Zea mays) [14]; [25]) | Plant response rating, Foxtail, Giant [16, 24] | Plant response rating, Wild Oat (wild oat (Avena fatua); [24]) | Plant response rating, Wild Oat (wild oat (Avena fatua); [25]) | Plant response rating, Surinam grass [18, 24] | Plant response rating, Blackgrass [19, 24] | Plant response rating, Blackgrass [19, 25] | Plant response rating, Velvetleaf [20, 24] | Plant response rating, Velvetleaf [20, 25] | Plant response rating, Wheat [22, 24] | Plant response rating, Wheat [22, 25]
70: Plant response rating, Foxtail, Giant ([5]; preemergence, Rate 125 g/ha) | Plant response rating (0 to 100), Sunflower (Sunflower)
